“And” between values parts separate entries of the source, which are not always exact repeats. Equal values may be shown once. Read-outs that look alike come from different tables or passages of the source.
Tested on: PD-1-overexpressing Jurkat cells
Assay: Small molecule screen: IL2 secretion (AlphaLISA) from stimulated PD-1-overexpressing Jurkat cells
Assay type: cell-based, human
Experimental: PD-1-overexpressing Jurkat cells were plated at a concentration of 100,000 cells/well in a total volume of 80 μl. […] Dynabeads conjugated to α-CD3, α-CD28, and α-PD-1 antibodies were added in 20 for a final assay volume of 100 with a final compound concentration of 3.3 μM and an 8:1 bead:cell ratio. Beads were conjugated to α-CD3/α-CD28/control IgG and added to wells containing DMSO-treated cells as a positive control, while beads conjugated to α-CD3/α-CD28/α-PD1 were added to wells containing DMSO-treated cells as a negative control. Supernatants from each well were analyzed for IL2 levels by AlphaLISA (Perkin Elmers) according to the manufacturer's protocol. Average and standard deviation values were calculated from the PD-1 controls (DMSO-treated cells stimulated with α-CD3/α-CD28/α-PD-1 beads); hits were defined as compounds scoring at least 3 standard deviations from the mean of the controls.
In addition to known negative regulators of IL-2 production (e.g. glycogen synthase kinase-3α/β (GSK3α/β) (24,25)), this screen identified cyclin-dependent kinases 4 and 6 inhibitors (CDK4/6i) as top hits (Table 1).

[1] = IL2 level, replicate 1, 3.3 μM compound, α-CD3/α-CD28/α-PD-1 beads
[2] = IL2 level, replicate 2, 3.3 μM compound, α-CD3/α-CD28/α-PD-1 beads
[3] = average of replicate Z scores, 3.3 μM compound

Row | Molecule | Zscore_1 [1] | Zscore_2 [2] | Zscore_AVG [3] | Zscore_1 | Zscore_2 | Zscore_AVG
1 | CN1C(=O)C(c2c[nH]c3ccccc23)=C(c2c[nH]c3ccccc23)C1=O [Bisindolylmaleimide V] | −0.6214 | 1.109 | 0.2438 |  |  | 
2 | CC(C)[C@H](CO)Nc1nc(Nc2cccc(Cl)c2)c2ncn(C(C)C)c2n1 [Purvalanol A] | −3.126 | 0.37 | −1.378 |  |  | 
3 | c1nc2nc(Nc3ccc(N4CCOCC4)cc3)nc(NC3CCCCC3)c2[nH]1 [Reversine] | −3.512 | −5.332 | −4.422 |  |  | 
4 | Cc1ccc(S(=O)(=O)/C=C/C#N)cc1 [BAY 11-7082] | −3.877 | −4.461 | −4.169 |  |  | 
5 | Cc1nc(-c2ccccc2)c(-c2ccncc2)o1 [SC-68376] | −1.404 | −0.2868 | −0.8452 |  |  | 
6 | CCc1nc(-c2ccc(OC)cc2)[nH]c1-c1ccncc1 [SB 202474, Neg Con for p38 MAPK Inhibition Studies] | −2.475 | −0.6025 | −1.539 |  |  | 
7 | Cc1cc(Nc2nc(-c3ccccc3)nc3ccccc23)n[nH]1 [GSK-3 Inhibitor XIII] | −2.535 | −3.925 | −3.23 |  |  | 
8 | O=C(Nc1cccc(Nc2nccc(Nc3cccc(C(F)(F)F)c3)n2)c1)C1CC1 [Aurora Kinase Inhibitor III] | 7.108 and 2.737 | 6.482 and −0.8139 | 6.795 and 0.9614 |  |  | 
9 | CCCCc1c(-c2ccc(O)cc2)[nH]c2nccnc12 [Aloisine A, RP107] | −3.301 | −1.322 | −2.311 |  |  | 
10 | Cl.NCCCn1cc(C2=C(c3c[nH]c4ccccc34)C(=O)NC2=O)c2ccccc21 [Bisindolylmaleimide III, Hydrochloride] | −3.661 | −5.093 | −4.377 |  |  | 
11 | CCCOc1ccc(/C=C2/SC(=O)NC2=O)cc1 [PIM1/2 Kinase Inhibitor VI] | −0.7695 | −1.561 | −1.165 |  |  | 
12 | CN1C(=O)/C(=C2\Nc3ccccc3\C2=N/O)c2ccc(Br)cc21 [GSK-3 Inhibitor IX, Control, MeBIO] | 1.104 | 1.769 | 1.437 |  |  | 
13 | COc1ccc(Cl)cc1NC(=O)Nc1cc(C)nc2ccccc12 [IGF-1R Inhibitor II] | 0.516 | −0.987 | −0.2355 |  |  | 
14 | O=C(CCCc1ccc(-c2ccccc2F)cc1)Nc1ccc(O)cc1 [MK2a Inhibitor] | −1.455 | −2.305 | −1.88 |  |  | 
15 | Indirubin-3′-monoxime | 2.085 | 1.884 | 1.985 |  |  | 
16 | p38 MAP Kinase Inhibitor VIII | −1.144 | −1.448 | −1.296 |  |  | 
17 | Cn1cc(C2=C(c3cn(CCCSC(=N)N)c4ccccc34)C(=O)NC2=O)c2ccccc21 [Ro-31-8220] | −5.987 | −6.268 | −6.128 |  |  | 
18 | O=C(Nc1cccc(Nc2cc(Nc3cccc(C(F)(F)F)c3)ncn2)c1)C1CC1 [EGFR Inhibitor] | 2.026 | 1.568 | 1.797 |  |  | 
19 | COc1ccc(S(=O)(=O)N(CCO)c2ccccc2CN(C)C/C=C/c2ccc(Cl)cc2)cc1 [KN-93] | −0.2896 | −2.889 | −1.589 |  |  | 
20 | N#Cc1cc([N+](=O)[O-])c2sc(C(N)=O)[n+]([O-])c2c1 [Polo-like Kinase Inhibitor II, BTO-1] | −1.795 | −0.518 | −1.156 |  |  | 
21 | c1ccc(-c2[nH]ncc2-c2ccnc3ccccc23)nc1 [TGF-b RI Kinase Inhibitor] | −0.7181 | −1.933 | −1.326 |  |  | 
22 | Nc1ncnc2c1c(-c1ccc(Oc3ccccc3)cc1)cn2C1CCCC1 [Lck Inhibitor] | −8.467 | −8.924 | −8.695 |  |  | 
23 | CC(=O)c1ccc(N2CCOCC2)cc1O [DNA-PK Inhibitor III] | 5.18 | 6.23 | 5.705 |  |  | 
24 | O=C(O)C=Cc1cc(Br)c(Br)c(Br)c1Br [Casein Kinase II Inhibitor III, TBCA] | 1.017 | 1.548 | 1.282 |  |  | 
25 | Cc1ccc(NC2=CC(=O)c3sc(C)nc3C2=O)cc1 [Cdk4 Inhibitor III] | −6.073 | −8.107 | −7.09 |  |  | 

Row | Molecule | Zscore_1 [1] | Zscore_2 [2] | Zscore_AVG [3] | Zscore_1 | Zscore_2 | Zscore_AVG
26 | Isogranulatinude | 1.39 | 4.572 | 2.981 |  |  | 
27 | O=[N+]([O-])/C=C/c1ccc2c(c1)OCO2 [Syk Inhibitor III] | −0.8894 | 0.1912 | −0.3491 |  |  | 
28 | O=C1Nc2ccccc2/C1=C\c1c(Cl)[nH]c2ccccc12 [Cdk1 Inhibitor] | −0.7783 | −0.6137 | −0.696 |  |  | 
29 | COC(=O)[C@@]1(O)C[C@H]2O[C@]1(C)n1c3ccccc3c3c4c(c5c6ccccc6n2c5c31)C(=O)NC4 [K-252a, Nocardiopsis sp.] | −4.42 | −6.58 | −5.5 |  |  | 
30 | Cc1cc(C=C2C(=O)C=CC2=O)cc(C)c1O [TX-1918] | −0.9736 | −2.336 | −1.655 |  |  | 
31 | Scytonemin, Lyngbya sp. | 0.1217 | −0.3399 | −0.1091 |  |  | 
32 | CS(=O)(=O)c1ccc(-c2nc(-c3ccc(F)cc3)c(-c3ccncc3)[nH]2)cc1 [SB 203580, Sulfone] |  |  |  | 2.85 | −0.6448 | 1.103
33 | O=C(Nc1ccc(-c2cn[nH]c2)cc1)C1COc2ccccc2O1 (stereo not drawn) [Rho Kinase Inhibitor V] | −0.6152 | −2.172 | −1.394 |  |  | 
34 | COc1ccc2c(c1)c(C1=C(c3c[nH]c4ccccc34)C(=O)NC1=O)cn2CCCN(C)C [G? 6983] | −9.778 | −9.075 | −9.426 |  |  | 
35 | Tpl2 Kinase Inhibitor II | −2.398 | −4.19 | −3.294 |  |  | 
36 | O=C1NC(=O)c2c1c1c3ccccc3[nH]c1c1[nH]c3ccccc3c21 [Arcyriaflavin A, Synthetic] | 3.889 | 5.674 | 4.782 |  |  | 
37 | Cn1nc2c3c(cccc31)C(=O)c1ccccc1-2 [JNK Inhibitor, Negative Control] | 0.1027 | 1.046 | 0.5746 |  |  | 
38 | CNCCNS(=O)(=O)c1cccc2cnccc12.Cl.Cl [H-8, Dihydrochloride] | −1.014 | −2.509 | −1.761 |  |  | 
39 | Fc1ccc(-c2nc3n(c2-c2ccncc2)CCS3)cc1 [SKF-86002] | −0.4953 | −2.331 | −1.413 |  |  | 
40 | Cl.Cl.Nc1ncnc2nc(-c3ccc(N4CCOCC4)nc3)cc(-c3cccc(Br)c3)c12 [Adenosine Kinase Inhibitor] | 0.3983 | 0.5922 | 0.4953 |  |  | 
41 | O=C(NC(NC(=S)Nc1ccc(F)c([N+](=O)[O-])c1)C(Cl)(Cl)Cl)C(c1ccccc1)c1ccccc1 (stereo not drawn) [ATM/ATR Kinase Inhibitor] | −1.798 | −1.073 | −1.436 |  |  | 
42 | Oc1cccc(-c2nc(N3CCOCC3)c3sccc3n2)c1 [PI 3-Kα Inhibitor IV] | 1.287 | 0.7223 | 1.005 |  |  | 
43 | N#Cc1c(C2CCNCC2)cc(-c2c(O)cccc2OCC2CC2)nc1N [IKK-2 Inhibitor VIII] | −0.6795 | −0.365 | −0.5222 |  |  | 
44 | Cn1c2ccccc2c2c3c(c4c5ccccc5n(CCC#N)c4c21)CNC3=O [G? 6976] | −6.424 | −4.191 | −5.308 |  |  | 
45 | CCCCCCCCCCCCCCCCn1cc[n+](Cc2ccccc2)c1C.[I-] [eEF-2 Kinase Inhibitor, NH125] | −4.759 | −7.332 | −6.046 |  |  | 
46 | N#Cc1cnc2cnc(NCc3cccnc3)cc2c1Nc1ccc(F)c(Cl)c1 [Tpl2 Kinase Inhibitor] | −2.9 | −5.972 | −4.436 |  |  | 
47 | CN([C@@H](Cc1ccc(OS(=O)(=O)c2cccc3cnccc23)cc1)C(=O)N1CCN(c2ccccc2)CC1)S(=O)(=O)c1cccc2cnccc12 [KN-62] | −0.2488 | −0.8434 | −0.5461 |  |  | 
48 | NC(=O)Nc1sc(-c2ccc(F)cc2)cc1C(N)=O [IKK-2 Inhibitor IV] | −1.558 | −4.19 | −2.874 |  |  | 
49 | CC(C)(C)n1nc(Cc2cccc3ccccc23)c2c(N)ncnc21 [PP1 Analog II, 1NM-PP1] | −0.9751 | 0.08497 | −0.4451 |  |  | 

— patent US11865176B2, “Compositions and methods of modulating anti-tumor immunity” (Dana-Farber Cancer Institute, Inc., priority 2016, dated 2024)
